Experimental findings from paper PMC9833666, “Designing and identifying β-hairpin peptide macrocycles with antibiotic potential” (Science Advances, 2023) are described below.

Like-named read-outs stand apart in the source and are kept apart here. Bridge positions count the residues as written; N and C are the ends. Ends that are not written are not given here. Peptide text beside a SMILES is read from it. A value given as a limit tells only on which side of the number the result lay.

Series [1] concerns Acinetobacter baumannii AB5075. The conditions noted are these: for AB5075 MIC FBS: 100% fetal bovine serum; for AB5075 MIC MH: Mueller-Hinton. The procedure:
MICs were performed by a modifiedClinical and Laboratory Standards Institute) procedure. […] Separately, E. coli W3110 or A. baumannii AB5075 was grown overnight in 5 ml of standard MH at 37°C. Cells from these cultures were diluted to a concentration of 5 × 10^5 to 6 × 10^5 cells/ml in either standard MH, MHII, RPMI, or fetal bovine serum, and 90 μl was added to each well of the 96-well plate containing diluted peptide. Plates were wrapped twice in parafilm and incubated at 37°C for 18 to 24 hours. Wells were examined by eye against wells with no bacteria for signs of growth. MICs were reported as the minimum concentration with no observable growth. In cases where triplicate samples differed, the concentration supported by the median of the three replicates was reported. […]
For consistency, all SynCH peptides were resuspended at 10 mg/ml in water. Peptides were then visually inspected for any lack of solubility (Data File S1). […]
We had this library commercially synthesized and tested its ability to inhibit the growth of Acinetobacter baumannii AB5075, a clinically isolated Carbapenem Resistant Acinetobacter (CRA) pathogen. MICs were performed in MH as well as 100% FBS, which is likely more representative of the in vivo environment. […]

In series [2] the test system is Single-donor human red blood cells. Briefly: Hemolysis assay. The class given is cell-based. The conditions noted are these: for Fold Change Hemolysis: hemolysis at 128 µg/ml, fold change relative to SySA-5. The procedure: Single-donor human red blood cells (Innovative Research, no. IWB3ALS) were washed in PBS and adjusted to a concentration of 1 × 10^9 cells/ml. Each peptide was added individually to 200 μl of cells at a concentration of either 300 μg/ml (SySA library) or 128 μg/ml (SySA-5 optimization library) in a 96-well polypropylene plate (Corning, 3879). PBS alone and 1% Triton X-100 were used for background normalization and 100% hemolysis, respectively. Each reaction was set up in triplicate. Plates were incubated for 3 hours at 37°C. Following incubation, samples were centrifuged at 800g for 20 min, and 100 μl of supernatant was transferred to a flat-bottom 96-well plate (Genesse, 25-104). Percent hemolysis for each sample was determined by normalizing the absorbance at 540 nm for each sample to the average background and dividing by the average absorbance for 1% Triton X-100 (100% hemolysis). Error bars represent 1 SD of triplicate samples.

In another series the test system is Escherichia coli W3110. The class given is cell-based. The conditions noted are these: for Ec W3110 MIC MH: E. coli W3110, MH medium; for Ec W3110 MIC RPMI: E. coli W3110, RPMI medium.

For the compound `CC(C)C[C@@H]1NC(=O)[C@H](CCCNC(=N)N)NC(=O)[C@H](C(C)C)NC(=O)[C@H](CCCNC(=N)N)NC(=O)[C@H](CC(C)C)NC(=O)[C@@H](N)CSSC[C@@H](C(=O)O)NC(=O)[C@H](C(C)C)NC(=O)[C@H](CCCNC(=N)N)NC(=O)[C@H](CC(C)C)NC(=O)[C@H](CCCNC(=N)N)NC(=O)[C@H](C(C)C)NC(=O)[C@H](CCCCN)NC(=O)[C@H](C(C)C)NC(=O)[C@@H]2CSSC[C@H](NC1=O)C(=O)N[C@@H](CC(N)=O)C(=O)N[C@@H](CCCNC(=N)N)C(=O)N[C@@H](CCCNC(=N)N)C(=O)N[C@@H](CCCNC(=N)N)C(=O)N2` [SySA-5.3] (H-CLRVRLCNRRRCVKVRLRVC-OH; disulfide 1-20, 7-12 (inferred); N-terminus and C-terminus assumed), the “AB5075 MIC FBS” value in series [1] (replicate 1), in series [1] (replicate 2) and in series [1] (replicate 3) was 128 µg/mL each time. Besides, the “AB5075 MIC MH” value in series [1] (replicate 1), in series [1] (replicate 2) and in series [1] (replicate 3) was 8 µg/mL each time. Besides, the “Fold Change Hemolysis” value in series [2] is 1.8.
For `CC(C)C[C@@H]1NC(=O)[C@H](CCCNC(=N)N)NC(=O)[C@H](C(C)C)NC(=O)[C@H](CCCNC(=N)N)NC(=O)[C@H](CC(C)C)NC(=O)[C@@H](N)CSSC[C@@H](C(=O)O)NC(=O)[C@H](C(C)C)NC(=O)[C@H](CCCNC(=N)N)NC(=O)[C@H](CC(C)C)NC(=O)[C@H](CCCNC(=N)N)NC(=O)[C@H](C(C)C)NC(=O)[C@H](CCCCN)NC(=O)[C@H](C(C)C)NC(=O)[C@@H]2CSSC[C@H](NC1=O)C(=O)N[C@@H](CCCNC(=N)N)C(=O)N[C@@H](CCCNC(=N)N)C(=O)N[C@@H](CCCNC(=N)N)C(=O)N[C@@H](CCCNC(=N)N)C(=O)N2` [SySA-5.4] (H-CLRVRLCRRRRCVKVRLRVC-OH; disulfide 1-20, 7-12 (inferred); N-terminus and C-terminus assumed), the “AB5075 MIC FBS” value in series [1] (replicate 1), in series [1] (replicate 2) and in series [1] (replicate 3) was 64 µg/mL throughout. In addition, the results for the “AB5075 MIC MH” value in series [1] (replicate 1), in series [1] (replicate 2) and in series [1] (replicate 3) were 4 µg/mL, 8 µg/mL and 8 µg/mL, respectively. For the same compound, the “Fold Change Hemolysis” value in series [2] was determined as 2.9.
Take `CC(C)C[C@@H]1NC(=O)[C@H](CO)NC(=O)[C@H](C(C)C)NC(=O)[C@H](CCCCN)NC(=O)[C@H](C(C)C)NC(=O)[C@@H]2CSSC[C@H](NC(=O)[C@H](CC(C)C)NC(=O)[C@H](CCCNC(=N)N)NC(=O)[C@H](C(C)C)NC(=O)[C@H](CCCNC(=N)N)NC(=O)[C@@H](N)CSSC[C@@H](C(=O)O)NC(=O)[C@H](CCCNC(=N)N)NC1=O)C(=O)N[C@@H](CC(N)=O)C(=O)N[C@@H](CCCNC(=N)N)C(=O)N[C@@H](CCCNC(=N)N)C(=O)N[C@@H](CCCNC(=N)N)C(=O)N2` [SySA-5.8] (H-CRVRLCNRRRCVKVSLRC-OH; disulfide 1-18, 6-11 (inferred); N-terminus and C-terminus assumed): the “AB5075 MIC FBS” value in series [1] (replicate 1), in series [1] (replicate 2) and in series [1] (replicate 3) was over 128 µg/mL throughout. Also, the “AB5075 MIC MH” value in series [1] (replicate 1), in series [1] (replicate 2) and in series [1] (replicate 3) was 8 µg/mL throughout. Further, in series [2], the “Fold Change Hemolysis” value turned out to be 0.8.
Turning to `CC(C)C[C@@H]1NC(=O)[C@H](CCCNC(=N)N)NC(=O)[C@H](C(C)C)NC(=O)[C@H](CCCCN)NC(=O)[C@H](C(C)C)NC(=O)[C@@H]2CSSC[C@H](NC(=O)[C@H](CC(C)C)NC(=O)[C@H](CCCNC(=N)N)NC(=O)[C@H](C(C)C)NC(=O)[C@H](CCCNC(=N)N)NC(=O)[C@@H](N)CSSC[C@@H](C(=O)O)NC(=O)[C@H](CCCNC(=N)N)NC1=O)C(=O)N[C@@H](CCCNC(=N)N)C(=O)N[C@@H](CCCNC(=N)N)C(=O)N[C@@H](CCCNC(=N)N)C(=O)N[C@@H](CCCNC(=N)N)C(=O)N2` [SySA-5.9] (H-CRVRLCRRRRCVKVRLRC-OH; disulfide 1-18, 6-11 (inferred); N-terminus and C-terminus assumed), the “AB5075 MIC FBS” value in series [1] (replicate 1), in series [1] (replicate 2) and in series [1] (replicate 3) was over 128 µg/mL in each case. Also, the “AB5075 MIC MH” value in series [1] (replicate 1), in series [1] (replicate 2) and in series [1] (replicate 3) was 8 µg/mL throughout. In series [2], the “Fold Change Hemolysis” value is on record as 0.6.
For `CC(C)C[C@@H]1NC(=O)[C@H](CCCNC(=N)N)NC(=O)[C@H](C(C)C)NC(=O)[C@H](CCCCN)NC(=O)[C@H](CCCNC(=N)N)NC(=O)[C@H](CCCNC(=N)N)NC(=O)[C@H](CCCNC(=N)N)NC(=O)[C@H](CCCNC(=N)N)NC(=O)[C@H](CCCNC(=N)N)NC(=O)[C@H](CC(C)C)NC(=O)[C@H](CCCNC(=N)N)NC(=O)[C@H](C(C)C)NC(=O)[C@H](CCCNC(=N)N)NC(=O)[C@H](CC(C)C)NC(=O)[C@@H](N)CSSC[C@@H](C(=O)O)NC(=O)[C@H](C(C)C)NC(=O)[C@H](CCCNC(=N)N)NC1=O` [SySA-5.12] (H-CLRVRLRRRRRKVRLRVC-OH; disulfide 1-18), in series [1] (median of triplicate), the “AB5075 MIC FBS” value was over 128 µg/mL and the “AB5075 MIC MH” value is 4 µg/mL. For the same compound, the “Fold Change Hemolysis” value in series [2] worked out at 3.7.
Regarding “CRVRIDIDNRSRTLKLEVQC (disulfide 1-20 (inferred)) [SySA-64]”, in the series with Escherichia coli W3110, the Ec W3110 MIC MH is over 256 µg/mL and the Ec W3110 MIC RPMI was over 256 µg/mL. Further, in series [2], the hemolysis is 0.70%.
In the series with Escherichia coli W3110, “CRVRINIDNRSGRVKLEVQC (disulfide 1-20 (inferred)) [SySA-87]” yielded an Ec W3110 MIC MH of over 256 µg/mL and an Ec W3110 MIC RPMI of over 256 µg/mL. The hemolysis in series [2] was determined as 4.63%.
In the series with Escherichia coli W3110, “CRVRININNGGRRVKLEVQC (disulfide 1-20 (inferred)) [SySA-32]” had an Ec W3110 MIC MH of over 256 µg/mL and an Ec W3110 MIC RPMI of over 256 µg/mL. Further, the hemolysis in series [2] is recorded as 0.0319%.
In the series on Escherichia coli W3110, “CRVRININNRSRTLKLELEC (disulfide 1-20 (inferred)) [SySA-68]” registered an Ec W3110 MIC MH of over 256 µg/mL and an Ec W3110 MIC RPMI of over 256 µg/mL. The hemolysis in series [2] came out at 0.47%.
Consider “CRVRVNINNGSGRVKLELEC (disulfide 1-20 (inferred)) [SySA-19]”, for which, in the series on Escherichia coli W3110, the Ec W3110 MIC MH was over 256 µg/mL and the Ec W3110 MIC RPMI is over 256 µg/mL. Moreover, the hemolysis in series [2] is recorded as 0.33%.
Regarding “CRVRVNINNRGGTVKLQLQC (disulfide 1-20 (inferred)) [SySA-13]”, in the series with Escherichia coli W3110, the Ec W3110 MIC MH was over 256 µg/mL and the Ec W3110 MIC RPMI was over 256 µg/mL. In addition, in series [2], the hemolysis was 0.91%.
Turning to “CVRIRLNNGGSGVKVTVEVC (disulfide 1-20 (inferred)) [SySA-85]”, in the series on Escherichia coli W3110, the Ec W3110 MIC MH is over 256 µg/mL and the Ec W3110 MIC RPMI was over 256 µg/mL. In addition, in series [2], the hemolysis is given as 1.81%.
In the series with Escherichia coli W3110, “CVRVRLDNRGGGLRISLEVC (disulfide 1-20 (inferred)) [SySA-2]” returned an Ec W3110 MIC MH of over 256 µg/mL and an Ec W3110 MIC RPMI of over 256 µg/mL. Besides, the hemolysis in series [2] was found to be 0.57%.
As for “CVRVRVDNRGSRVKVTVQVC (disulfide 1-20 (inferred)) [SySA-12]”, in the series with Escherichia coli W3110, the Ec W3110 MIC MH was over 256 µg/mL and the Ec W3110 MIC RPMI was over 256 µg/mL. In addition, the hemolysis in series [2] was found to be 0.30%.
In the series with Escherichia coli W3110, “CVRVRVNNRGGGVRITLQVC (disulfide 1-20 (inferred)) [SySA-24]” gave an Ec W3110 MIC MH of over 256 µg/mL and an Ec W3110 MIC RPMI of over 256 µg/mL. The hemolysis in series [2] was 0.38%.
For the compound “CVTIRLNDGGSGLKISLQVC (disulfide 1-20 (inferred)) [SySA-23]”, in the series with Escherichia coli W3110, the Ec W3110 MIC MH was over 256 µg/mL and the Ec W3110 MIC RPMI was over 256 µg/mL. The hemolysis in series [2] was -0.03%.
In the series with Escherichia coli W3110, “CVTIRVDNRGSRLKISVQVC (disulfide 1-20 (inferred)) [SySA-33]” returned an Ec W3110 MIC MH of over 256 µg/mL and an Ec W3110 MIC RPMI of over 256 µg/mL. Also, the hemolysis in series [2] amounted to 0.26%.
For “CVTVRVNNRGGRLKVSVEVC (disulfide 1-20 (inferred)) [SySA-56]”, in the series with Escherichia coli W3110, the Ec W3110 MIC MH was over 256 µg/mL and the Ec W3110 MIC RPMI was over 256 µg/mL. In series [2], the hemolysis is recorded as 0.19%.
For “CVTVRVNNRGRGLRISLQVC (disulfide 1-20 (inferred)) [SySA-47]”, in the series with Escherichia coli W3110, the Ec W3110 MIC MH is over 256 µg/mL and the Ec W3110 MIC RPMI is over 256 µg/mL. In addition, the hemolysis in series [2] stood at 0.48%.
As to “CVTVRVNNRGSRLKVSVEVC (disulfide 1-20 (inferred)) [SySA-18]”, in the series on Escherichia coli W3110, the Ec W3110 MIC MH was over 256 µg/mL and the Ec W3110 MIC RPMI was over 256 µg/mL. The hemolysis in series [2] stood at 0.60%.
